Assay results published in patent US20170182058A1, “TREATMENT OF RETT SYNDROME” (priority 2014, published 2017).
Like-named read-outs stand apart in the source and are kept apart here.

Legend:
[1] = in vitro permeability of a layer of CaCo-2 cells; type: in vitro ADME, human; settings: human, Caco-2; test conc 50 μM, assay duration 2 hr; read-out: mean A->B Papp (apparent permeability)
female Mecp2 mice = experiment: novel object recognition (NOR) task; type: in vivo; settings: Mecp2 females
Protocol: Cognitive function was assessed using the novel object recognition (NOR) task using methods previously described (Schaevitz et al. 2013). […] Novel object memory was assessed. during three sessions. This task relies on the innate tendency of a mouse to explore unfamiliar objects vs. familiar objects. Testing was performed in an open-field arena. Twenty-four hours prior to training, mice were habituated to the arena for 10 min. Ninety minutes before training, the mice were administered drug or vehicle (0.1, 0.5, 1.0, 2.5 and 5.0 mg/kg IP). During training, mice were given 10 min to explore two identical Lego Objects (A +A). Short- and long-term object memory were assessed in two subsequent sessions (24 h after the completion of training) during which mice were given 10 min to explore the familiar (A) or a novel (B or C) object. The duration of exploration (defined as the mouse's snout or forelimbs physically touching or approaching within 1 cm of an object) of familiar and novel objects was measured. The amount of time spent exploring the novel object over the total time exploring both novel and familiar objects in each session was used to measure object memory. [N==6/dose of 0.1, 0.5 and 1.0; N=1/dose of 2.5 and 5.0 mg/kg; for vehicle N=6 WT and N=6 Mecp2 mice.]
For the novel Objection recognition task data, we created a matrix of all wildtype and. Mecp2 females who were administered the vehicle and a second matrix comparing Mecp2 females with and without the drug (all doses combined).

Mecp2 mice [2] = experiment: respiratory function, plethysmograph; type: in vivo; settings: IP or gavage, 0.1-20 mg/kg
Protocol: Respiratory function was monitored in a plethysmograph (EMKA Technologies) for 30 minutes prior to and 1 hour after drug administration (one set of mice received IP injections and one set of mice received oral gavage). [N=2 mice/group at each dose and each administration route; for the vehicle controls, N=6 WT/group; N=6 Mecp2/group]. Data were analyzed using repeated measures analysis of variance.

plasma stability = type: in vitro ADME; settings: based on animal and in-vitro studies
CaCo-2 cells = experiment: in vitro permeability of a layer of CaCo-2 cells; type: in vitro ADME, human; settings: based on in vitro CaCo-2 permeability
mice [3] = experiment: enhancement of learning in animals; type: in vivo; settings: compared with galantamine
Description: Potentiation of nicotinic receptors facilitates release of a number of different neurotransmitters including dopamine, glutamate, and GABA.

nicotinic receptors = experiment: neuronal electrophysiological activity via nicotinic receptors; settings: galantamine positive allosteric modulatory site on nicotinic receptors
Mecp2 mice [4] = experiment: locomotor activity, photobeam activity system; type: in vivo; settings: 0.1-20 mg/kg
Protocol: Locomotor activity was monitored using methods described previously (Shaevitz et al. 2013 Genes Brain Behav. 12(7): 732-40. doi: […]). Mecp2 mutant males (between 1 and 3 months old) and females (between 3 and 6 months old) and age-matched controls were monitored for one-hour prior to and 12 hours after drug (or vehicle: 20% DMSO in saline) administration (one set of mice received IP injections and one set of mice received oral gavage) in doses that ranged from 0.1-20 mg/kg). Activity was measured across the 12-h dark cycle using a photobeam activity system (San Diego Instruments, San Diego, Calif., USA). Mice were placed individually into a cage (47×25×21 cm) inside a rectangular arena equipped with a 3×8 array of photobeams. The average number of ambulatory (two adjacent) and fine (repeated single) beam breaks per hour over the 12 h was compared. [N=2 mice/group at each dose and each administration route; for the vehicle controls, N=6 WT/group; N=6 Mecp2/group]. Data were analyzed using repeated measures analysis of variance.

mice [5] = settings: cited from earlier work; for adverse effects at high doses: 50-100 mg/kg
cholinesterase = cholinesterase inhibitor (Han et al 1991); cited from earlier work
[6] = drug IP, all doses 0.1-5.0 mg/kg combined

Row | Compound | Papp A→B at 2 hr, 50 μM [1] [×10⁻⁶ cm/s] | NOR scores = or below 0.5 (share of mice that did not learn) (female Mecp2 mice; [6]) [%] | NOR scores above 0.5 (share of mice that learned) (female Mecp2 mice; [6]) [%] | NOR task performance versus vehicle (female Mecp2 mice; Chi square p = 0.0321) | respiratory activity (Mecp2 mice [2]) | stability in plasma (plasma stability) | predicted oral bioavailability (CaCo-2 cells) [%] | enhancing learning (mice [3]) | neuronal electrophysiological activity (nicotinic receptors) | safety and tolerability (Mecp2 mice [4]; Mecp2 mice of both sexes and controls, from locomotor and respiratory tests) | locomotor activity (Mecp2 mice [4]; Mecp2 mice of either sex, IP or gavage) | ambulatory and fine motor movements (Mecp2 mice [4]; all doses tested, IP or oral gavage) | adverse effects at high doses (mice [5]; listed as Galantamine n-butylcarbamate) | adverse effects at high doses (mice [5]; listed as n-butylcarbamate) | lethality (no lethality up to dose) (mice [5]) [mg/kg] | IC50 (cholinesterase) [µM]
1 | CNC(=C[N+](=O)[O-])NCCSCc1ccc(CN(C)C)o1 [Ranitidine, reference compound] | 1.1 |  |  |  |  |  |  |  |  |  |  |  |  |  |  | 
2 | CC(=O)CC(c1ccccc1)c1c(O)c2ccccc2oc1=O (stereo not drawn) [Warfarin, reference compound] | 34.7 |  |  |  |  |  |  |  |  |  |  |  |  |  |  | 
3 | CCCCNC(=O)O[C@H]1C=C[C@@]23CCN(C)Cc4ccc(OC)c(c42)O[C@H]3C1 [galantamine n-butylcarbamate] | 20.8 | 65 | 35 | improves memory for a novel object and cognitive performance | did not affect respiratory activity | stable in plasma | 80 | effective in enhancing learning at lower doses than galantamine | enhances neuronal electrophysiological activity | safe and well tolerated | did not impair locomotor activity | not significant altered | affects cardiac and motor functions | wobbly and off-balance with rapid heart rate still present at 4 hours, but were recovered at 24 hours | > 100 | 1.09
